For eight molecules, Ki results are on record in patent US20150175655A1 (priority 2012, published 2015).

Each structure is given as a SMILES string. pKi: −log10 of the molar value.

One assay addresses T1, NS3 genotype 3a protease (UniProt Q81258).
T1 construct: Purified NS3 protease domain (amino acids 1-181) of the genotype 1b and 3a virus were generated as above; fused on or other part: N-terminal hexahistidine tag and rTEV protease cleavage site (vector p28-N6H-Tev-NS3(181)3)
T1 sequence (Q81258 1033-1663): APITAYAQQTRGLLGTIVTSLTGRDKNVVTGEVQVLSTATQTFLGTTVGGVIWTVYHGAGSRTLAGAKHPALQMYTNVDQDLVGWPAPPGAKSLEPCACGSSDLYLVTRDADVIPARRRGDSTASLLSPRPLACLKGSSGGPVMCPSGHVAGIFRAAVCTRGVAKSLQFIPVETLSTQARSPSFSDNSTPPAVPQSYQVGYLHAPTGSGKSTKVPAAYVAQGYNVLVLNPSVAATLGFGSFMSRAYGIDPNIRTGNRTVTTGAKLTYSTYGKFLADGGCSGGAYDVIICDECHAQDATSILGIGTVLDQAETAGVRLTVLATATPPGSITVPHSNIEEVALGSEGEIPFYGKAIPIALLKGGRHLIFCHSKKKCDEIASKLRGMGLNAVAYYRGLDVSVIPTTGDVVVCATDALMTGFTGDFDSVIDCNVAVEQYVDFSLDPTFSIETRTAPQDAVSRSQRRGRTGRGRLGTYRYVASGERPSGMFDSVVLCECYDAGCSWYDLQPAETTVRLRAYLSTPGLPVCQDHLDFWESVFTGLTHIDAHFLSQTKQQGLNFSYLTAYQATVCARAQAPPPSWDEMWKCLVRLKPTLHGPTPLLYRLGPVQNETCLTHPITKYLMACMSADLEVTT
The experiment in a line: Ki determination, NS3 protease genotype 3a (fluorogenic depsipeptide substrate). Conditions: 200 pM enzyme, 20 μM NS4A peptide, 2 μM substrate, read-out: Ki 3A. It is filed as biochemical, hepatitis C virus. The text has this:
The coding sequences for the genotype 3 HCV protease domain was amplified by RT-PCR using a Titan One Tube RT-PCR Kit (Roche, Indianapolis, Ind.) and RNA extracted from HCV-positive human serum (BBI Diagnostics, MA) using a QIAmp UltraSens Virus Kit (Qiagen, Valencia, Calif.). 5′ PCR primers were designed to encode N-terminal hexahistidine tags and to insert in-frame rTEV protease cleavage sites into the NS3 protease coding sequences. The resulting DNA fragments were cloned into pET28 yielding the expression vectors p28-N6H-Tev-NS3(181)1a and p28-N6H-Tev-NS3(181)3, respectively.
BL21AI bacteria (Invitrogen, Carlsbad, Calif.) were transformed with genotype 1b or 3 NS3 expression vectors and used to inoculate a 20 L fermentation vessel (Sartorius BBI System Inc., Bethlehem, Pa.), containing 18 L of fresh 2YT medium supplemented with 50 μg/mL kanamycin. When cell densities reached an OD600 of 1, the temperature of the cultures was reduced from 37° C. to 28° C. and induction was immediately initiated by the addition of 30 μM ZnSO4, 14 mM L-arabinose and 1 mM Isopropyl β-D-thiogalactoside (IPTG) final concentrations. Cells were harvested by centrifugation four hours post-induction and were stored as frozen pellets at −80° C. prior to NS3 protein purification.
Bacterial pellets collected from the expression of genotype 3 HCV NS3 protease were homogenized in Lysis Buffer (25 mM tris, pH 7.5 buffer containing 150 mM NaCl and 1 mM phenylmethanesulfonyl fluoride (PMSF)) and passed through a microfluidizer at 18,000 pounds/in^2. Homogenized cell lysates were centrifuged at 30,000×g for 30 minutes at 4° C. The resulting P1 pellets were washed with Wash Buffer I (25 mM tris, pH 7.5 containing 1% CHAPS) followed by centrifugation at 10,000×g for 30 minutes at 4° C. […] The resulting P3 pellets were resuspended in Solubilization Buffer (20 ml of 25 mM tris, pH 7.5 containing 150 mM NaCl and 8 M urea) and incubated at 4° C. for one hour. Solubilized proteins were passed through a 0.45 micron filter. Protein concentrations were measured and the solutions were adjusted to 40 mM DTT, incubated for 30 minutes at 4° C. and then quickly diluted into Refolding Buffer (25 mM tris, pH 8.5, 0.8 M Guanidine-HCl, 0.4 M L-Arginine, 10 mM ZnSO4) while stirring. Protein solutions were incubated at 4° C. overnight to allow refolding. Refolded proteases were centrifuged at 30,000×g for 10 minutes to remove residual precipitates. Final protein concentrations were then measured and the NS3 proteases were aliquoted, snap frozen in liquid nitrogen and stored at −80° C.
Purified NS3 protease domain (amino acids 1-181) of the genotype 1b and 3a virus were generated as above. The internally quenched fluorogenic depsipeptide substrate Ac-DED(Edans)-EEAbuψ[COO]ASK(Dabcyl)-NH2 and a synthetic peptide containing the hydrophobic core residues of the NS4A protein cofactor ([…]; NS4A peptide) were obtained from Anaspec, Inc. (San Jose, Calif.). Other chemicals and biochemicals were of reagent grade or better and were purchased from standard suppliers.
Reactions were run at room temperature in buffer consisting of 50 mM HEPES, 40% glycerol, 0.05% Triton X-100, 10 mM DTT, and 10% DMSO. The final assay solutions contained 50 pM NS3 genotype 1b protease or 200 pM genotype 3a protease, 20 μM NS4A peptide, and 4 μM substrate (genotype 1 b) or 2 μM substrate (genotype 3a). Inhibitor concentrations varied from 100 nM to 5 pM in 3-fold dilutions, and no-inhibitor controls were included.
Compound dilutions were made in DMSO at 20× final concentration. Reaction mixtures were prepared in 96-well assay plates. A solution of enzyme and NS4A peptide in assay buffer (25 μL volume with both reagents at 4× final concentration) was mixed with 45 μL assay buffer and 5 μL of either inhibitor or DMSO, and pre-incubated at room temperature for 1 hour. The reaction was started by addition of 25 μL substrate solution at 4× final concentration. […]
What is called pKi is −log10 of the Ki, conventionally taken in molar units. Consider `CC[C@@H]1[C@@H]2CN(C(=O)[C@H](C(C)(C)C)NC(=O)O[C@@H]3C[C@H]3CCCCC(F)c3nc4ccc(OC)cc4nc3O2)[C@@H]1C(=O)N[C@]1(C(=O)NS(=O)(=O)C2(C)CC2)C[C@H]1C(F)F` (stereo partly drawn) [Example 90, (1aR,5S,8S,9S,10R,22aR)-5-tert-butyl-N-[(1R,2R)-2-(difluoromethyl)-1-{[(1-methylcyclopropyl)sulfonyl]carbamoyl}cyclopropyl]-9-ethyl-18-fluoro-14-methoxy-3,6-dioxo-1,1a,3,4,5,6,9,10,18,19,20,21,22,22a-tetradecahydro-8H-7,10-methanocyclopropa[18,19][1,10,3,6]dioxadiazacyclononadecino[11,12-b]quinoxaline-8-carboxamide], for which the pKi is 9.89.

Take `COc1ccc2nc3c(nc2c1)O[C@H]1CN(C(=O)[C@H](C(C)(C)C)NC(=O)O[C@@H]2C[C@@H]4C[C@@H]4[C@H]2CCCCC3(F)F)[C@H](C(=O)N[C@]2(C(=O)NS(=O)(=O)C3(C)CC3)C[C@H]2C(F)F)[C@@H]1C` [Example 81, (1aS,2aR,6S,9S,10S,11R,23aR,23bS)-6-tert-butyl-N-[(1R,2R)-2-(difluoromethyl)-1-{[(1-methylcyclopropyl)sulfonyl]carbamoyl}cyclopropyl]-19,19-difluoro-15-methoxy-10-methyl-4,7-dioxo-1a,2,2a,4,5,6,7,10,11,19,20,21,22,23,23a,23b-hexadecahydro-1H,9H-8,11-methanocyclopropa[4′,5′]cyclopenta[1′,2′:18,19][1,10,3,6]dioxadiazacyclononade cino[11,12-b]quinoxaline-9-carboxamide]: the pKi is 10.30. For the molecule `CC[C@@H]1[C@@H]2CN(C(=O)[C@H](C(C)(C)C)NC(=O)O[C@@H]3C[C@H]3CCCCC(F)(F)c3nc4ccccc4nc3O2)[C@@H]1C(=O)N[C@]1(C(=O)NS(=O)(=O)C2CC2)C[C@H]1C(F)F` [Example 53, (1aR,5S,8S,9S,10R,22aR)-5-tert-butyl-N-[(1R,2R)-1-[(cyclopropylsulfonyl)carbamoyl]-2-(difluoromethyl)cyclopropyl]-9-ethyl-18,18-difluoro-3,6-dioxo-1,1a,3,4,5,6,9,10,18,19,20,21,22,22a-tetradecahydro-8H-7,10-methanocyclopropa[18,19][1,10,3,6]dioxadiazacyclononadecino[11,12-b]quinoxaline-8-carboxamide], the pKi was 10.05.

Turning to `CC[C@@H]1[C@@H]2CN(C(=O)[C@H](C(C)(C)C)NC(=O)O[C@@]3(C)C[C@@H]3CCCCC(F)(F)c3nc4ccc(OC)cc4nc3O2)[C@@H]1C(=O)N[C@]1(C(=O)NS(=O)(=O)C2(C)CC2)C[C@H]1C(F)F` [Example 64, (1aS,5S,8S,9S,10R,22aS)-5-tert-butyl-N-[(1R,2R)-2-(difluoromethyl)-1-{[(1-methylcyclopropyl)sulfonyl]carbamoyl}cyclopropyl]-9-ethyl-18,18-difluoro-14-methoxy-1a-methyl-3,6-dioxo-1,1a,3,4,5,6,9,10,18,19,20,21,22,22a-tetradecahydro-8H-7,10-methanocyclopropa[18,19][1,10,3,6]dioxadiazacyclononadecino[11,12-b]quinoxaline-8-carboxamide], the pKi is 8.92.

For `CC[C@@H]1[C@@H]2CN(C(=O)[C@H](C(C)(C)C)NC(=O)O[C@]3(C)CCC[C@H]3CCCCCc3nc4ccc(OC)cc4nc3O2)[C@@H]1C(=O)N[C@]1(C(=O)NS(=O)(=O)C2(C)CC2)C[C@H]1CC` [Example 56, (3aR,7S,10S,11S,12R,24aR)-7-tert-butyl-11-ethyl-N-[(1R,2R)-2-ethyl-1-{[(1-methylcyclopropyl)sulfonyl]carbamoyl}cyclopropyl]-16-methoxy-3a-methyl-5,8-dioxo-1,2,3,3a,5,6,7,8,11,12,20,21,22,23,24,24a-hexadecahydro-10H-9,12-methanocyclopenta[18,19][1,10,3,6]dioxadiazacyclononadecino[11,12-b]quinoxaline-10-carboxamide], the pKi was 9.00. Still for that read-out and setting: under `COc1ccc2nc3c(nc2c1)O[C@H]1CN(C(=O)[C@H](C(C)(C)C)NC(=O)O[C@@]2(C)C[C@@H]2CCCCC3)[C@H](C(=O)N[C@]2(C(=O)NS(=O)(=O)C3(C)CC3)C[C@H]2C(F)F)[C@@H]1C` [Example 45, (1aS,5S,8S,9S,10R,22aS)-5-tert-butyl-N-[(1R,2R)-2-(difluoromethyl)-1-{[(1-methylcyclopropyl)sulfonyl]carbamoyl}cyclopropyl]-14-methoxy-1a,9-dimethyl-3,6-dioxo-1,1a,3,4,5,6,9,10,18,19,20,21,22,22a-tetradecahydro-8H-7,10-methanocyclopropa[18,19][1,10,3,6]dioxadiazacyclononadecino[11,12-b]quinoxaline-8-carboxamide] stands 9.32.

Still in this assay, the particulars now being: read-out: Ki 3A, 200 pM enzyme, 20 μM NS4A peptide, 2 μM substrate.
In the case of `C=C[C@@H]1C[C@]1(NC(=O)[C@@H]1[C@H](C)[C@@H]2CN1C(=O)[C@H](C(C)(C)C)NC(=O)O[C@@H]1C[C@H]1CCCCCc1nc3ccc(OC)cc3nc1O2)C(=O)NS(=O)(=O)C1CC1` [Example 48, (1aR,5S,8S,9S,10R,22aR)-5-tert-butyl-N-{(1R,2S)-1-[(cyclopropylsulfonyl)carbamoyl]-2-ethenylcyclopropyl}-14-methoxy-9-methyl-3,6-dioxo-1,1a,3,4,5,6,9,10,18,19,20,21,22,22a-tetradecahydro-8H-7,10-methanocyclopropa[18,19][1,10,3,6]dioxadiazacyclononadecino[11,12-b]quinoxaline-8-carboxamide], the negative-log Ki (pKi) was 10.05. In the case of `COc1ccc2nc3c(nc2c1)O[C@H]1CN(C(=O)[C@H](C(C)(C)C)NC(=O)O[C@@H]2C[C@H]2CCCCC3)[C@H](C(=O)N[C@]2(C(=O)NS(=O)(=O)C3CC3)C[C@H]2CCF)[C@@H]1C` [Example 22, (1aR,5S,8S,9S,10R,22aR)-5-tert-butyl-N-[(R1R,2S)-1-[(cyclopropylsulfonyl)carbamoyl]-2-(2-fluoroethyl)cyclopropyl]-14-methoxy-9-methyl-3,6-dioxo-1,1a,3,4,5,6,9,10,18,19,20,21,22,22a-tetradecahydro-8H-7,10-methanocyclopropa[18,19][1,10,3,6]dioxadiazacyclononadecino[11,12-b]quinoxaline-8-carboxamide], the pKi is 8.89.
